# Data reported in ChEMBL document CHEMBL4602703, “Lead Optimization of a Pyrrole-Based Dihydroorotate Dehydrogenase Inhibitor Series for the Treatment of Malaria” (J Med Chem, 2020).
# Columns and labels:
# Plasmodium falciparum [1] = assay: microbe, parasite or virus in culture; conditions: 3D7, 72 h
# [2] = biological target: T1, Dihydroorotate dehydrogenase (quinone), mitochondrial (Homo sapiens, UniProt Q02127)
# [3] = biological target: Dihydroorotate dehydrogenase (quinone), mitochondrial (Mus musculus, UniProt O35435)
# [4] = biological target: Dihydroorotate dehydrogenase (quinone), mitochondrial (Rattus norvegicus, UniProt Q63707)
# [5] = Intrinsic clearance in human liver microsomes assessed as per mg protein; format: ADME, Microsome
# Albumin [6] = biological target: T2, Albumin (Homo sapiens, UniProt P02768); assay: Binding affinity to albumin (unknown origin) by chromatographic method; format: ADME; conditions: for fraction unbound: albumin, read-out: PB (converted)
# [7] = Intrinsic clearance in mouse liver microsomes assessed as per mg protein; format: ADME, Microsome
# physchem [8] = conditions: octanol/water, pH 7.4
# [9] = Inhibition of N-terminal His6-tagged Plasmodium falciparum DHODH expressed in Escherichia coli BL21(DE3) cells using L-DHO as substrate by DCIP dye based assay
# Plasmodium falciparum [10] = assay: animal or person; conditions: for EC50: 3D70087/N9, 96 h
# [11] = fAUC in Plasmodium falciparum 3D70087/N9 infected po dosed NOD-SCID IL2Rgamma null mouse blood administered once daily for 4 days; format: ADME, organism-based; conditions: in vivo, 96 h
# Plasmodium falciparum [12] = assay: Antimalarial activity against Plasmodium falciparum 3D70087/N9 infected in NOD-SCID IL2Rgamma null mouse assessed as blood AUC level require to show 90% reduction in parasitemia administered administered once daily for 4 days; format: functional, organism-based
# Plasmodium falciparum [13] = test system: Plasmodium falciparum
# [14] = AUC (0 to infinity) in Swiss mouse at 10 mg/kg, po by LC-MS analysis; format: ADME, organism-based; parameters: dose 10 mg/kg, route oral, time infinity; conditions: in vivo
# [15] = Clearance in Sprague-Dawley rat plasma at […], iv by LC-MS analysis; format: ADME, organism-based; conditions: in vivo
# [16] = Apparent half life in Swiss mouse at 10 mg/kg, po by LC-MS analysis; format: ADME, organism-based; conditions: in vivo, read-out: t1/2(app) (converted)
# physchem [17] = conditions: fasted state simulated gastric fluid, pH 1.6
# Plasmodium falciparum [18] = assay: Antimalarial activity against Plasmodium falciparum R1BC1A harboring DHODH L531F mutant measured after 72 hrs by SYBR Green dye based fluorescence assay; format: functional, organism-based
# L1210 = assay: Cytotoxicity against mouse L1210 cells assessed as reduction in cell viability; format: cell-based
# [19] = biological target: T3, Voltage-gated inwardly rectifying potassium channel KCNH2 (Homo sapiens, UniProt Q12809); assay: Inhibition of human ERG by patch clamp assay
# Albumin [20] = biological target: T2, Albumin; assay: Binding affinity to albumin (unknown origin) in ALBUMAX medium; format: ADME; conditions: read-out: PB (converted)
# [21] = Protein binding in human liver microsomes by LC-MS analysis based ultracentrifugation assay; format: ADME, Microsome; conditions: read-out: PB (converted)
# Plasmodium falciparum [22] = format: functional, organism-based; conditions: R10C1B, 72 h
# physchem [23] = conditions: PBS, pH 7.4
# [24] = biological target: T3, Voltage-gated inwardly rectifying potassium channel KCNH2; assay: Inhibition of human ERG by IonWorks patch clamp electrophysiology assay
# Plasmodium falciparum [25] = assay: Antimalarial activity against Plasmodium falciparum 3D70087/N9 infected in po dosed NOD-SCID IL2Rgamma null mouse administered BID for 4 days by flow cytometric analysis; format: functional; conditions: 3D70087/N9, po, 96 h
# Plasmodium falciparum [26] = format: functional, organism-based; conditions: R2B, 72 h
# physchem [27] = conditions: fasted state simulated intestinal fluid, pH 6.5
# HepG2 = assay: Cytotoxicity against human HepG2 cells assessed as reduction in cell viability; format: cell-based
# [28] = Inhibition of yeast DHODH transformed in Plasmodium falciparum D10 in presence of 10 uM proguanil; parameters: species or system Saccharomyces cerevisiae
# [29] = Cmax in Swiss mouse at 10 mg/kg, po by LC-MS analysis; format: ADME, organism-based; parameters: dose 10 mg/kg, route oral; conditions: in vivo
# in vivo [30] = conditions: Sprague-Dawley, rat, po
# Plasmodium falciparum [31] = assay: Antimalarial activity against Plasmodium falciparum R1AC1B harboring DHODH C276F mutant measured after 72 hrs by SYBR Green dye based fluorescence assay; format: functional, organism-based
# [32] = Protein binding in rat plasma by LC-MS analysis based ultracentrifugation assay; format: ADME, cell-free; conditions: read-out: PPB (converted)
# [33] = Cmax in Sprague-Dawley rat at 18.8 mg/kg, po by LC-MS analysis; format: ADME, organism-based; parameters: dose 18.8 mg/kg, route oral; conditions: in vivo
# in vivo [34] = conditions: Swiss, mouse, po, 10 mg/kg
# [35] = Protein binding in DMEM medium containing 10% fetal calf serum by LC-MS analysis based ultracentrifugation assay; format: ADME, cell-free, Bos taurus; conditions: cattle, serum
# Plasmodium falciparum [36] = assay: microbe, parasite or virus in culture; conditions: 1D3, 72 h
# [37] = Intrinsic clearance in liver microsomes assessed as per mg protein; conditions: read-out: CLH
# [38] = simulated gi fluid, pH 5.8
# [39] = Oral bioavailability in Swiss mouse at 10 mg/kg by LC-MS analysis; format: ADME, organism-based; conditions: in vivo
# [40] = Inhibition of C-terminal His6-tagged Plasmodium falciparum DHODH expressed in Escherichia coli BL21(DE3) cells using L-DHO as substrate after 20 mins by 2,6-dichloroindophenol reduction based assay
# [41] = biological target: T1, Dihydroorotate dehydrogenase (quinone), mitochondrial; assay: Inhibition of C-terminal His6-tagged human DHODH (30 to 396 residues) expressed in Escherichia coli BL21(DE3) cells using L-DHO as substrate after 20 mins by 2,6-dichloroindophenol reduction based assay
# Chain of Dihydroorotate dehydrogenase (quinone), mitochondrial (Rattus norvegicus, UniProt Q63707) (Q63707 whole entry): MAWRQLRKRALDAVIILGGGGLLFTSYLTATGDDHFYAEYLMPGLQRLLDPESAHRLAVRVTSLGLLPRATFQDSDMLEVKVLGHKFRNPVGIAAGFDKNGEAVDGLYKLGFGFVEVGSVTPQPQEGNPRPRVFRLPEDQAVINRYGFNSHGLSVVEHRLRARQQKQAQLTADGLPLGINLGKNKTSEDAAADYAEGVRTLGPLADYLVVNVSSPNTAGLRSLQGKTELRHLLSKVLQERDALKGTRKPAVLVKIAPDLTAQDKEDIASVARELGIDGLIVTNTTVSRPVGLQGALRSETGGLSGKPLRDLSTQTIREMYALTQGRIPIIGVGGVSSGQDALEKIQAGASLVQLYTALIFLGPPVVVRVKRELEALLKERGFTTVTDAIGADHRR
# Chain of Dihydroorotate dehydrogenase (quinone), mitochondrial (Mus musculus, UniProt O35435) (O35435 whole entry): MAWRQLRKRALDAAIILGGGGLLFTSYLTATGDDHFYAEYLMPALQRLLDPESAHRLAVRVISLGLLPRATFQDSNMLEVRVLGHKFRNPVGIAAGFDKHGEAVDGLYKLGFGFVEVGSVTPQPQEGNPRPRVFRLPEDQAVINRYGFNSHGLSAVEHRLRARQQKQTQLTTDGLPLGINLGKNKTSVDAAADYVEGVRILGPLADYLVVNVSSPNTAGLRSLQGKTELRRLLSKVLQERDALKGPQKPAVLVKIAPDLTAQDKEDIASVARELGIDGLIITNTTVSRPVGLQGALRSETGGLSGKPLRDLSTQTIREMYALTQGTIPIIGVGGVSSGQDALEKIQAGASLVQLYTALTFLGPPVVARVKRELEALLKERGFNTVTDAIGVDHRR
# T1 sequence (Q02127 whole entry): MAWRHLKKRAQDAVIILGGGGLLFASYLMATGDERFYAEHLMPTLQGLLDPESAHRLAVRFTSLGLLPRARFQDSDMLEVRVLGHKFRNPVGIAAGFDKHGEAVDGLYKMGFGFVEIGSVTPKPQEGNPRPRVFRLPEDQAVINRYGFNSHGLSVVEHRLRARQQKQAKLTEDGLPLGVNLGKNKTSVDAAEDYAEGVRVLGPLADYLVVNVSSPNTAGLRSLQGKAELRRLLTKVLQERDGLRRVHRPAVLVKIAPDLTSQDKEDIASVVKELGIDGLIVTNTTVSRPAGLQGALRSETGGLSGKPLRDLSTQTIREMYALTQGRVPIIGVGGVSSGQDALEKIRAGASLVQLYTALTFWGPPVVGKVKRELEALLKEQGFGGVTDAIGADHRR
# T2 sequence (P02768 whole entry): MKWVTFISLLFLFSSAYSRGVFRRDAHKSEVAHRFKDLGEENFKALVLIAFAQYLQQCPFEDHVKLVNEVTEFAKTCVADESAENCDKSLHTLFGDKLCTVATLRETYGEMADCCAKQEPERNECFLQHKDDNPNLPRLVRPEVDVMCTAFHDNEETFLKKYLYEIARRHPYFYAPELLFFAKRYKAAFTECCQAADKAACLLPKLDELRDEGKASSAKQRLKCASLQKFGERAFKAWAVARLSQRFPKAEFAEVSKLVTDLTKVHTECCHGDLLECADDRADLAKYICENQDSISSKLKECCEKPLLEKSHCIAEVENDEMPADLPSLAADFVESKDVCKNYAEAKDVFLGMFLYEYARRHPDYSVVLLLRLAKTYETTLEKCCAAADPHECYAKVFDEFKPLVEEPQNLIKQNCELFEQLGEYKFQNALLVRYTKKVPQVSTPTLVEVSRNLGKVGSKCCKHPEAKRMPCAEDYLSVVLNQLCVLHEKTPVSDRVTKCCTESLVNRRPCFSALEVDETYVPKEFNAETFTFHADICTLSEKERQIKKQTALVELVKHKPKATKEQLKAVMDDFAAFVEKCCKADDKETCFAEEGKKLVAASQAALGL
# T3 sequence (Q12809 whole entry): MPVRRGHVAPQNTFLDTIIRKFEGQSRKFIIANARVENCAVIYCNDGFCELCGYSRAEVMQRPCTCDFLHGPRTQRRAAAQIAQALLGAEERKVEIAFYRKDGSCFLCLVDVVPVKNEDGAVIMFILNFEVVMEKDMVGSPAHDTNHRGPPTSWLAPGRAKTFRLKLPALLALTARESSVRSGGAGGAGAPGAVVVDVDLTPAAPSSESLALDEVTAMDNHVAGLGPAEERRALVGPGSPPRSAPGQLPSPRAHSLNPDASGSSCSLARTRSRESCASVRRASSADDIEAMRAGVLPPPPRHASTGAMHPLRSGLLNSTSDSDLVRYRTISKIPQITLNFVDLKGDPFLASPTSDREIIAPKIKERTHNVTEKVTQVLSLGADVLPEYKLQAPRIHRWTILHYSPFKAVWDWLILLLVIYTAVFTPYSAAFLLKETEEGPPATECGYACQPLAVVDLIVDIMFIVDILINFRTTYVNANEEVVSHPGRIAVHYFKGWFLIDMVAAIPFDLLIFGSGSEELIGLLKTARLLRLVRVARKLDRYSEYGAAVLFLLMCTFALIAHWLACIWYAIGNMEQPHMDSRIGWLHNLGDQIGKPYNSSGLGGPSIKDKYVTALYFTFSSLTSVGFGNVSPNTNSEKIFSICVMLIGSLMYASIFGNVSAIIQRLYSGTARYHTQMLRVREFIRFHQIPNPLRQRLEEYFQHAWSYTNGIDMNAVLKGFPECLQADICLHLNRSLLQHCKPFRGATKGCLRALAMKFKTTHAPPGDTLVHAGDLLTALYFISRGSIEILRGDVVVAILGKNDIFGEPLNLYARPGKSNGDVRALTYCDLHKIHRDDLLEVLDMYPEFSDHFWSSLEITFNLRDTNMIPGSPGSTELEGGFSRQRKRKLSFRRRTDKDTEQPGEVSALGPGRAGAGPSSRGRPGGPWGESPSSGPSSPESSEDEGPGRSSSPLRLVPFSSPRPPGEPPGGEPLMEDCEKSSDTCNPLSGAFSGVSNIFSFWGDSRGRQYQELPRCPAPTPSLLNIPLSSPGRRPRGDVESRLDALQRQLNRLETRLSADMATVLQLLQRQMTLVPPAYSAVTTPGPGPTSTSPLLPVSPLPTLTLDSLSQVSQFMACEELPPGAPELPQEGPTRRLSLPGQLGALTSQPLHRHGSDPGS
compound,measurement,setting,value
CCOC(=O)c1[nH]c(C)c(Cc2ccc(C(F)(F)F)cc2)c1C,EC50,Plasmodium falciparum [1],61 to 71 nM
same,IC50,[2],> 100000 nM
same,IC50,[3],> 100000 nM
same,IC50,[4],> 100000 nM
CCOC(=O)c1[nH]c(C)c(Cc2ccc(C(F)(F)F)nc2)c1C,EC50,Plasmodium falciparum [1],9.2 nM
same,microsomal CLint,[5],286 µL/min/mg
same,IC50,[2],> 100000 nM
same,fraction unbound,Albumin [6],0.064
same,microsomal CLint,[7]; microsomes,779 µL/min/mg
same,IC50,[3],> 100000 nM
same,IC50,[4],> 100000 nM
same,logD,physchem [8],3.7
Cc1c(C(O)c2ccc(C(F)(F)F)nc2)c[nH]c1C(=O)NC1CC1 (racemic),EC50,Plasmodium falciparum [1],44 nM
same,microsomal CLint,[5],20 µL/min/mg
same,IC50,[2],> 100000 nM
same,fraction unbound,Albumin [6],0.105
same,microsomal CLint,[7]; microsomes,40 µL/min/mg
same,logD,physchem [8],3.2
same,IC50,[9],74 nM
CCCNC(=O)c1[nH]c(C)c(Cc2ccc(C(F)(F)F)nc2)c1C,EC50,Plasmodium falciparum [1],47 nM
same,microsomal CLint,[5],172 µL/min/mg
same,IC50,[2],> 100000 nM
same,fraction unbound,Albumin [6],0.155
same,microsomal CLint,[7]; microsomes,64 µL/min/mg
same,logD,physchem [8],3.2
same,IC50,[9],72 nM
Cc1cc(Nc2ccc(C(F)(F)F)nc2)n2nc(C(C)(F)F)nc2n1,EC50,Plasmodium falciparum [10],14 nM
same,ED90,"Plasmodium falciparum [10]; 3D70087/N9, in Mus musculus, po, 96 h",2.6 mg/kg/day
same,fAUC,[11],250 ng·h/mL
same,AUCED90,Plasmodium falciparum [12],12.9 µg·h/mL
same,fEC50,Plasmodium falciparum [13],0.007 µM
Cc1cc(Nc2ccc(S(F)(F)(F)(F)F)cc2)n2nc(C(C)(F)F)nc2n1 [DSM-265],AUC(0-inf),[14],29.7 µM·h
same,clearance,[15],6.5 mL/min/kg
same,half-life,[16],2.4 h
same,solubility,physchem [17],6.8 µg/mL
same,EC50,Plasmodium falciparum [1],6 nM
same,EC50,Plasmodium falciparum [18],80 to 110 nM
same,microsomal CLint,[5],< 7 µL/min/mg
same,EC50,Plasmodium falciparum [10],6 nM
same,CC50,L1210,> 50000 nM
same,EC50,[19],1600 nM
same,fAUC,[11],15 to 23 ng·h/mL
same,PB,Albumin [6]; isolated protein,97.4%
same,fraction unbound,Albumin [20],0.169
same,fraction unbound,[21],0.283
same,EC50,Plasmodium falciparum [22],120 to 150 nM
same,solubility,physchem [23],2 µg/mL
same,EC50,[24],7000 nM
same,microsomal CLint,"[7]; liver microsomes, read-out: CLH",7 to 8 µL/min/mg
same,ED90,Plasmodium falciparum [25],3 mg/kg/day
same,fEC50,Plasmodium falciparum [13],0.001 µM
same,EC50,Plasmodium falciparum [26],74 to 150 nM
same,solubility,physchem [27],5.1 µg/mL
same,CC50,HepG2,> 50000 nM
same,EC50,[28],> 20000 nM
same,Cmax,[29],3.94 µM
same,Tmax,in vivo [30],3.3 h
same,EC50,Plasmodium falciparum [31],170 nM
same,fraction unbound,[32],0.03
same,Cmax,[33],3.95 µM
same,Tmax,in vivo [34],1 to 2 h
same,PB,[35],78.5%
same,EC50,Plasmodium falciparum [36],23 nM
same,IC50,[9],30 nM
same,microsomal CLint,[37],< 7 µL/min/mg
same,solubility,[38],27.6 µg/mL
same,bioavailability,[39],61%
Cc1c(Cc2ccc(C(F)(F)F)nc2)c[nH]c1C(=O)N1CCC1,EC50,Plasmodium falciparum [1],82 nM
same,microsomal CLint,[5],< 7 µL/min/mg
same,IC50,[2],> 100000 nM
same,fraction unbound,Albumin [6],0.341
same,microsomal CLint,[7]; microsomes,192 µL/min/mg
same,logD,physchem [8],2.7
same,IC50,[9],170 nM
CCOC(=O)c1[nH]c(C)c(Cc2ccc(OC)cc2)c1C,EC50,Plasmodium falciparum [1],590 nM
same,IC50,[2],> 100000 nM
same,IC50,[3],> 100000 nM
same,IC50,[4],> 100000 nM
same,IC50,[9],520 nM
Cc1c(Cc2ccc(C(F)(F)F)nc2)c[nH]c1C(=O)N1CC(F)(F)C1,EC50,Plasmodium falciparum [1],29 nM
same,microsomal CLint,[5],21 µL/min/mg
same,IC50,[2],> 100000 nM
same,fraction unbound,Albumin [6],0.251
same,microsomal CLint,[7]; microsomes,94 µL/min/mg
same,IC50,[3],> 100000 nM
same,IC50,[4],> 100000 nM
same,logD,physchem [8],3.3
same,IC50,[9],33 nM
Cc1c(Cc2ccc(C(F)(F)F)cc2Cl)c[nH]c1C(=O)NC1CC1,EC50,Plasmodium falciparum [1],20 nM
same,microsomal CLint,[5],14 µL/min/mg
same,IC50,[2],> 100000 nM
same,fraction unbound,Albumin [6],0.019
same,microsomal CLint,[7]; microsomes,264 µL/min/mg
same,logD,physchem [8],4.1
same,IC50,[9],17 nM
Cc1c(Cc2ccc(C(F)(F)F)cc2F)c[nH]c1C(=O)NC1CC1,EC50,Plasmodium falciparum [1],16 nM
same,microsomal CLint,[5],15 µL/min/mg
same,IC50,[2],> 100000 nM
same,fraction unbound,Albumin [6],0.03
same,microsomal CLint,[7]; microsomes,184 µL/min/mg
same,logD,physchem [8],3.8
same,IC50,[9],44 nM
Cc1[nH]c(C(=O)NC2CC2)cc1Cc1ccc(C(F)(F)F)nc1,EC50,Plasmodium falciparum [1],3600 nM
same,microsomal CLint,[5],36 µL/min/mg
same,IC50,[2],> 100000 nM
same,fraction unbound,Albumin [6],0.274
same,microsomal CLint,[7]; microsomes,41 µL/min/mg
same,logD,physchem [8],2.8
same,IC50,[9],10000 nM
Cc1nc2cc(OC(F)(F)F)ccc2n1-c1ccc(C(=O)NC2CC2)s1,EC50,Plasmodium falciparum [1],7 nM
same,IC50,[40],22 nM
same,IC50,[41],> 30000 nM
Cc1c(Cc2ccc(C(F)(F)F)nc2)c[nH]c1C(=O)NCC(F)(F)F,EC50,Plasmodium falciparum [1],44 to 59 nM
same,microsomal CLint,[5],15 µL/min/mg
same,IC50,[2],> 100000 nM
same,fraction unbound,Albumin [6],0.181
same,microsomal CLint,[7]; microsomes,57 µL/min/mg
same,logD,physchem [8],3.3
same,IC50,[9],210 nM
